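Cells were grown in 96-well plates and exposed to each compound for 48 hours at five concentrations; endpoints were interpolated linearly between bracketing concentrations, or set to the highest concentration if not reached. GI50 is the concentration that inhibits growth by half.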 Calls of active or inactive are those of the source. Rule as the data show it: active = GI50 up to about 1.1 µM and inactive = higher.
What was measured:
Test in all cases: growth of human tumour cells (NCI), 48 h
RPMI-8226 = tested on: RPMI-8226
SK-MEL-5 = tested on: SK-MEL-5
EKVX = tested on: EKVX
ACHN = tested on: ACHN
OVCAR-4 = tested on: OVCAR-4
KM-20L2 = tested on: KM-20L2
SNB-75 = tested on: SNB-75
COLO 205 = tested on: COLO 205
NCI-H460 = tested on: NCI-H460
U-251 = tested on: U-251
CAKI-1 = tested on: CAKI-1
SNB-19 = tested on: SNB-19
HCT-116 = tested on: HCT-116
HCT-15 = tested on: HCT-15
NCI-H226 = tested on: NCI-H226
BT-549 = tested on: BT-549
T47D = tested on: T47D
SR = tested on: SR
PC-3 = tested on: PC-3
MDA-MB-231 = tested on: MDA-MB-231

Compound | GI50 (RPMI-8226) | GI50 (SK-MEL-5) | GI50 (EKVX) | GI50 (ACHN) | GI50 (OVCAR-4) | GI50 (KM-20L2) | GI50 (SNB-75) | GI50 (COLO 205) | GI50 (NCI-H460) | GI50 (U-251) | GI50 (CAKI-1) | GI50 (SNB-19) | GI50 (HCT-116) | GI50 (HCT-15) | GI50 (NCI-H226) | GI50 (BT-549) | GI50 (T47D) | GI50 (SR) | GI50 (PC-3) | GI50 (MDA-MB-231)
COc1ccc(C2c3cc4c(cc3OC(O)(CO)C2C(=O)O)OCO4)c(OC)c1OC.COc1ccc(C2c3cc4c(cc3OC3(O)COC(=O)C23)OCO4)c(OC)c1OC (stereo unspecified) | > 100 µM (inactive) | > 100 µM (inactive) | > 100 µM (inactive) | > 100 µM (inactive) | > 100 µM (inactive) | > 100 µM (inactive) | 75.2 µM (inactive) | > 100 µM (inactive) | > 100 µM (inactive) | > 100 µM (inactive) | 65.8 µM (inactive) | > 100 µM (inactive) | > 100 µM (inactive) | > 100 µM |  |  |  |  |  | 
Cc1cccc2[n+]1[C@H]1[C@H]([C@@H]3O[C@H]1c1ccccc13)[S+]([O-])N2 (stereo partly specified) | 10.8 µM (inactive) |  | 44.4 µM (inactive) | 57.7 µM (inactive) |  | 42.7 µM (inactive) | 58.5 µM (inactive) | 61.1 µM (inactive) | 25 µM (inactive) | 43.8 µM (inactive) |  | 37.9 µM (inactive) | 30.3 µM (inactive) |  |  |  |  |  |  | 
CN(C)C(c1ccccc1)C(O)c1ccccc1 (stereo unspecified) | > 100 µM (inactive) |  | > 100 µM (inactive) | > 100 µM (inactive) |  | > 100 µM (inactive) | 75.5 µM (inactive) | > 100 µM (inactive) | > 100 µM (inactive) | > 100 µM (inactive) | > 100 µM (inactive) | > 100 µM (inactive) |  | > 100 µM | > 100 µM (inactive) |  |  |  |  | 
CC(=O)OC12CC(C)C3(O)C4C=C(C)C(=O)[C@@]4(O)CC(CO)=C[C@H]3C1C2(C)C (stereo partly specified) | > 10 µM (inactive) | 5.2 µM (inactive) | > 10 µM (inactive) | > 10 µM (inactive) | > 10 µM (inactive) |  | > 10 µM (inactive) | 1.88 µM (inactive) | > 100 µM (inactive) | > 10 µM (inactive) | 4.7 µM (inactive) | > 10 µM (inactive) | > 10 µM (inactive) | > 10 µM | > 10 µM (inactive) | > 10 µM (inactive) | > 100 µM (inactive) | > 10 µM (inactive) | > 1000 µM (inactive) | > 10 µM (inactive)
O=C1CN2CCN(CC2)CC(=O)Nc2ccc(cc2)S(=O)(=O)c2ccc(cc2)NC(=O)CN2CCN(CC2)CC(=O)Nc2ccc(cc2)S(=O)(=O)c2ccc(cc2)N1 | 10.1 µM (inactive) | 31.8 µM (inactive) | > 100 µM (inactive) | 66.4 µM (inactive) | > 100 µM (inactive) |  | > 100 µM (inactive) | 40.7 µM (inactive) | 19.5 µM (inactive) | 13.7 µM (inactive) | > 47.8 µM (inactive) | > 100 µM (inactive) | 14.8 µM (inactive) | 13.4 µM | 64.7 µM (inactive) | 31.5 µM (inactive) | 67.6 µM (inactive) | 4.56 µM (inactive) | > 100 µM (inactive) | 16.1 µM (inactive)
O=C(Cc1nc2ccccc2[nH]c1=O)c1c[nH]c2ccccc12 | 6.92 µM (inactive) | 10.8 µM (inactive) | 29.6 µM (inactive) | 10.5 µM (inactive) | 11.4 µM (inactive) |  | 25.1 µM (inactive) | 11.1 µM (inactive) | 6.58 µM (inactive) | 13.7 µM (inactive) | 20.2 µM (inactive) | 25.8 µM (inactive) | 13.8 µM (inactive) | 8.18 µM | 11.9 µM (inactive) | 12.2 µM (inactive) | 12.2 µM (inactive) | 4.42 µM (inactive) | 10.5 µM (inactive) | 19.1 µM (inactive)
O=C(N/N=C(/c1nc2ccc(Cl)cc2[nH]c1=O)C(O)c1ccc(Cl)cc1Cl)c1ccncc1 (stereo unspecified) | > 100 µM (inactive) | > 100 µM (inactive) | > 100 µM (inactive) | > 100 µM (inactive) |  | > 100 µM (inactive) | > 100 µM (inactive) | > 100 µM (inactive) | > 100 µM (inactive) | > 100 µM (inactive) | > 100 µM (inactive) | > 100 µM (inactive) | > 100 µM (inactive) | > 100 µM | > 100 µM (inactive) |  |  |  |  | 
Brc1ccc(/C=N/C23CC4CC(CC(C4)C2)C3)cc1 | > 100 µM (inactive) | > 100 µM (inactive) | > 100 µM (inactive) | > 100 µM (inactive) | > 100 µM (inactive) | > 100 µM (inactive) | > 100 µM (inactive) | > 100 µM (inactive) | > 100 µM (inactive) | > 100 µM (inactive) | > 100 µM (inactive) | > 100 µM (inactive) | > 100 µM (inactive) | > 100 µM | > 100 µM (inactive) |  |  |  |  | 
O=C(/C=C\Nc1ccccc1O)C(F)(F)F | 15.5 µM (inactive) | 21 µM (inactive) | 51.2 µM (inactive) | 67.8 µM (inactive) | 71.9 µM (inactive) |  | > 100 µM (inactive) | 13.9 µM (inactive) | 67.5 µM (inactive) | 41.6 µM (inactive) | 68.1 µM (inactive) | > 100 µM (inactive) | 29.5 µM (inactive) | 40.8 µM | > 100 µM (inactive) | > 100 µM (inactive) | 39 µM (inactive) | 36.3 µM (inactive) | 37.3 µM (inactive) | > 100 µM (inactive)
O=C(O)Cc1c[nH]c2ccc(F)cc12 | > 100 µM (inactive) | > 100 µM (inactive) | > 100 µM (inactive) | > 100 µM (inactive) | > 100 µM (inactive) |  | > 100 µM (inactive) | > 100 µM (inactive) | > 100 µM (inactive) | > 100 µM (inactive) | > 100 µM (inactive) | > 100 µM (inactive) | > 100 µM (inactive) | > 100 µM | > 100 µM (inactive) | > 100 µM (inactive) | > 100 µM (inactive) | > 100 µM (inactive) | > 100 µM (inactive) | > 100 µM (inactive)
O=C1/C(=C/c2ccc(Cl)cc2)CNC/C1=C\c1ccc(Cl)cc1 | 0.267 µM (active) | 6.73 µM (inactive) |  | 2.07 µM (inactive) |  | 2.64 µM (inactive) | 2.9 µM (inactive) | 2.03 µM (inactive) | 2.11 µM (inactive) | 1.36 µM (inactive) | 2.44 µM (inactive) | 1.7 µM (inactive) | 1.65 µM (inactive) | 1.62 µM |  |  |  |  |  | 
COc1ccc(C(=O)c2ccc(-n3cc(/C=C/[N+](=O)[O-])c4ccccc43)cc2)cc1 | 3.08 µM (inactive) | 21.6 µM (inactive) | 23.6 µM (inactive) | 20.1 µM (inactive) | 29.4 µM (inactive) |  | 91 µM (inactive) | 32.3 µM (inactive) | 35.9 µM (inactive) | 11.3 µM (inactive) | 19.1 µM (inactive) | 30.2 µM (inactive) | 10.6 µM (inactive) | 7 µM | > 51.5 µM (inactive) | 15.5 µM (inactive) | 2.07 µM (inactive) | 8.81 µM (inactive) | 18.8 µM (inactive) | 19.3 µM (inactive)
NC(=S)N/N=C(\C(=O)Nc1cccc([N+](=O)[O-])c1)c1nc2ccc([N+](=O)[O-])cc2nc1O | > 100 µM (inactive) | 30.9 µM (inactive) | 54.3 µM (inactive) | 21.4 µM (inactive) | > 100 µM (inactive) | 37.2 µM (inactive) | > 100 µM (inactive) | > 100 µM (inactive) | 74.6 µM (inactive) | > 100 µM (inactive) |  | > 100 µM (inactive) | 58.5 µM (inactive) | 29.4 µM | > 100 µM (inactive) |  |  |  |  | 
CCN(CC)c1ccc2cc(C(N)=S)c(=N)oc2c1 | > 100 µM (inactive) | > 100 µM (inactive) | > 100 µM (inactive) | > 100 µM (inactive) | > 100 µM (inactive) |  | > 100 µM (inactive) | > 100 µM (inactive) | > 100 µM (inactive) | > 100 µM (inactive) | > 100 µM (inactive) | > 100 µM (inactive) | > 100 µM (inactive) | > 100 µM | > 100 µM (inactive) | 37.9 µM (inactive) | > 100 µM (inactive) | > 100 µM (inactive) | > 100 µM (inactive) | > 100 µM (inactive)
COc1ccc([C@@H]2OC(=O)C3C2C(=O)O[C@H]3c2ccc(OC)c(OC)c2)cc1OC (stereo partly specified) | > 100 µM (inactive) | > 100 µM (inactive) | > 100 µM (inactive) | > 100 µM (inactive) | > 100 µM (inactive) | > 100 µM (inactive) | 81.5 µM (inactive) | > 100 µM (inactive) | > 100 µM (inactive) | > 100 µM (inactive) |  | > 100 µM (inactive) | > 100 µM (inactive) | > 100 µM | > 100 µM (inactive) |  |  |  |  | 
CC(C)=CCC[C@@H](C)c1c2ncc[nH]c-2c(C)c(=O)c1O | 20 µM (inactive) | 11.7 µM (inactive) | 26.2 µM (inactive) | 12.4 µM (inactive) | 26.1 µM (inactive) |  | 28.2 µM (inactive) | 28.8 µM (inactive) | 10.8 µM (inactive) | 43.6 µM (inactive) | 35.1 µM (inactive) | 25.9 µM (inactive) | 37.1 µM (inactive) | 6.46 µM | 16.9 µM (inactive) | 30.8 µM (inactive) | 25.9 µM (inactive) | 51.3 µM (inactive) | 35.2 µM (inactive) | 25.2 µM (inactive)
CCOC(=O)C1=C(C)N(C)C(=S)NC1c1cccc(O)c1 (stereo unspecified) | 18.7 µM (inactive) | 18.5 µM (inactive) | 24.1 µM (inactive) | 71 µM (inactive) | 36.3 µM (inactive) |  | 24.7 µM (inactive) | 31.8 µM (inactive) | 38.2 µM (inactive) | 34.8 µM (inactive) | 56.6 µM (inactive) | 54.3 µM (inactive) | 25.6 µM (inactive) | 30.3 µM | 47.9 µM (inactive) | 32.9 µM (inactive) | 18.7 µM (inactive) | 16.9 µM (inactive) | 38.5 µM (inactive) | 46.6 µM (inactive)

— ChEMBL document CHEMBL1201862, “PubChem BioAssay data set” (2004)
